Patent US12642794B2, “Dose regimens for use of LY3154207 in the treatment of dopaminergic CNS disorders” (Eli Lilly and Company, priority 2018, dated 2026)

Columns and labels:
adult rhesus monkey [1] = test: Spatial Delayed Response Task, spatial working memory; assay type: in vivo, rhesus macaque; details: for spatial working memory performance after repeat of the dose: 2.5 mg/kg on Day 1 and repeated on Day 5
Protocol: Experimental Overview: A group of both aged and non-aged animals was tested at a single dose of 2.5 mg/kg and their performance was followed daily for the first six days and on alternate days thereafter. This was to ascertain that we could repeat the effects we observed previously at the lowest possible dose. The effects of repeating this dose on Day 5, at the […] mark, were examined in order to determine whether (i) an immediate diminution in performance could still be seen the next day and (ii) whether the treatment could achieve a relatively consistent and enduring enhancement of performance in the following days. Since this dose was also capable of inducing a short term deficit in performance, the effects of single administrations at lower doses of 0.1 and 1.0 mg/kg were examined.
All animals were rhesus macaques except one stumptail (Macaca arctoides). Details of the animal demographics are given with each set of results. It was desired to have younger animals in each study, however a preponderance of aged animals were studied, and females outnumbered males by 2 or 3 to one. The Spatial Delayed Response Task is established as one of the most reliable, sensitive, and valuable models in which to test spatial working memory in primates. The Spatial Delayed Response Task is implemented rigidly in a completely systematic format that is uniform within and between animals and between studies. The Spatial Delayed Response Task is designed to normalize performance across animals such they all normally perform at ˜70% correct. The Spatial Delayed Response Task directly challenges the same spatial working memory circuitry in human and nonhuman primates, including dorsolateral prefrontal cortex, posterior parietal cortex and MD thalamus. The Spatial Delayed Response Task is sensitive to multiple neuropharmacological manipulations, whether administered locally or systemically, including dopaminergic, nicotinic, glutamatergic, and GABAergic agents. In this task one of several well locations are baited with food in view of the animal and then covered with identical plaques. An opaque shutter is then lowered for one of 5 variable delays, and then raised to allow the animal to make a response to one of the well locations to retrieve the food treat. Each animal is stabilized (65-75% correct ±≤2.5%) prior to commencing any administration by varying the number of wells and the lengths of the delay. Each testing session consists of 20 trials, 4 trials at each of 5 delays (distributed semi-randomly) ranging from 0, 1, 2, 3, and 4 N seconds, where N is incremented from 1 to 10 according to ability. The number of wells ranges for 2 to 7 and thus stability is achieved by gradually varying the number of wells and the N factor. Original baseline is achieved on initial training and is standardized over twenty sessions, thereafter an animal typically undergoes regular testing to ensure a reasonably stable baseline. An absolute minimum of three baseline sessions are required prior to any experimental condition. Animals are not food deprived but instead reward for correct responses with their most preferred treats (such as yoghurt raisins, gummy bears, and almonds) and then fed their normal ration of nutritional biscuits shortly after cognitive testing.
DPTQ was formulated as a suspension in 20% Captisol/PBS at pH8. Great care was taken to protect the compound in sonication and it was injected (at a volume of 0.2 ml/kg) via a 21G hypodermic needle (to avoid blockage) into the gluteus maximus within 2 hours of formulation (kept on ice). Vehicle was refrigerated in sterile injectable vials for up to one month. Animals were fully acclimated to all procedures prior to enrollment into any study. They were assigned on a readiness for study basis and where relevant, assignment was semirandom between vehicle and treatment arms. IM injections were performed in the animals' home cage 1 hour prior to cognitive testing. […]

adult rhesus monkey [2] = test: as above; assay type: in vivo, rhesus macaque

In the case of `C[C@H]1c2cccc(CC(C)(C)O)c2C[C@H](CO)N1C(=O)Cc1c(Cl)cccc1Cl` [DPTQ, 2-(2,6-dichlorophenyl)-1-((1S,3R)-5-(2-hydroxy-2-methylpropyl)-3-(hydroxymethyl)-1-methyl-3,4-dihydroisoquinolin-2 (1H)-yl) ethan-1-one], the “diminution in spatial working memory performance” value (adult rhesus monkey [1]; 0.1 mg/kg) is reported as “No sign of any diminution in performance”, the “enhancement of spatial working memory performance” value (“enhancement” below) (adult rhesus monkey [1]; 0.1 mg/kg, 2-week period) is reported as “modest” and the “spatial working memory performance versus baseline” value (adult rhesus monkey [1]; 0.1 mg/kg, Day 4) is reported as “significant improvement over baseline”. For the same molecule, the “early deficit in spatial working memory” value (adult rhesus monkey [1]; 1.0 mg/kg) was “not evident”, the “enhancement” value (adult rhesus monkey [1]; 1.0 mg/kg, significance on Day 5) was “stronger than for the 0.1 mg/kg dose” and the “effect on spatial working memory performance” value (adult rhesus monkey [1]; 2.5 mg/kg IM, Day 1) was “No immediate effect”. For the same molecule, the “impairment of spatial working memory performance” value (adult rhesus monkey [1]; 2.5 mg/kg IM, Day 3) was ~10%, the “enhancement” value (adult rhesus monkey [1]; 2.5 mg/kg IM, starting from Day 4, prolonged) was ~10% and the “duration of sustained positive effect” value (adult rhesus monkey [1]; 2.5 mg/kg and above) was ≥ 14 days. The “spatial working memory performance after repeat of the dose” value (adult rhesus monkey [1]; Day 6) was “distinctive drop in performance”, the “spatial working memory performance after repeat of the dose” value (adult rhesus monkey [1]; after Day 6) was “enhancement for the subsequent week” and the “difference between aged and non-aged animals” value (adult rhesus monkey [1]; 2.5 mg/kg, combined scores for Days 4, 5, and 6) was “No significant difference”. For the same molecule, the “spatial working memory performance” value (adult rhesus monkey [1]; 24 to 48 hours post injection) was “substantially impaired”, the “spatial working memory performance” value (adult rhesus monkey [1]; 96 to 120 hours post injection) was “considerably enhanced” and the “acute effect on spatial working memory performance” value (adult rhesus monkey [2]; acute doses of 2.5 to 10 mg/kg IM) was “trend in reducing spatial working memory performance”. The “protection against ketamine induced cognitive deficits” value (adult rhesus monkey [2]; rhesus monkey, in vivo) was “little effect”.
